Reference: ChEMBL document CHEMBL1649335, “Discovery of {1-[4-(2-{hexahydropyrrolo[3,4-c]pyrrol-2(1H)-yl}-1H-benzimidazol-1-yl)piperidin-1-yl]cyclooctyl}methanol, systemically potent novel non-peptide agonist of nociceptin/orphanin FQ receptor as analgesic for the treatment of neuropathic pain: design, synthesis, and structure-activity …” (Bioorg Med Chem, 2010)
Activity calls are given as the source filed them.

Key:
[1] = Drug level Sprague-Dawley rat brain at 10 mg/kg, sc after 0.5 hrs; type: ADME, organism-based; design: dose 10 mg/kg, route subcutaneous; conditions: read-out: Drug uptake
[2] = Drug level Sprague-Dawley rat cerebrospinal fluid at 10 mg/kg, sc after 0.5 hrs; type: ADME, organism-based; design: dose 10 mg/kg, route subcutaneous; conditions: read-out: Drug uptake
[3] = Drug level Sprague-Dawley rat spinal cord at 10 mg/kg, sc after 0.5 hrs; type: ADME, organism-based; design: dose 10 mg/kg, route subcutaneous; conditions: read-out: Drug uptake
[4] = Drug level Sprague-Dawley rat plasma at 10 mg/kg, sc after […]; type: ADME, organism-based; design: dose 10 mg/kg, route subcutaneous; conditions: read-out: Drug uptake
[5] = Drug level Sprague-Dawley rat plasma at 10 mg/kg, sc after 0.5 hrs; type: ADME, organism-based; design: dose 10 mg/kg, route subcutaneous; conditions: read-out: Drug uptake
Rattus norvegicus [6] = test: Antiallodynic activity against von Frey hair mechanically stimulated neuropathic pain in sc dosed Sprague-Dawley rat assessed as increase of response threshold after 1 hr; type: functional
Rattus norvegicus [7] = test: Antiallodynic activity against von Frey hair mechanically stimulated neuropathic pain in sc dosed Sprague-Dawley rat assessed as increase of response threshold after 2 hrs; type: functional
Rattus norvegicus [8] = test: Antiallodynic activity against von Frey hair mechanically stimulated neuropathic pain in intrathecally dosed Sprague-Dawley rat assessed as increase of response threshold per site after 20 mins; type: functional
Rattus norvegicus [9] = test: Antiallodynic activity against von Frey hair mechanically stimulated neuropathic pain in icv dosed Sprague-Dawley rat assessed as assessed as minimum effective dose to increase of response threshold per site after 20 mins; type: functional
Rattus norvegicus [10] = test: Antiallodynic activity against von Frey hair mechanically stimulated neuropathic pain in sc dosed Sprague-Dawley rat assessed as increase of response threshold; type: functional, organism-based
Rattus norvegicus [11] = test: Antiallodynic activity against von Frey hair mechanically stimulated neuropathic pain in Sprague-Dawley rat assessed as increase of response threshold at 30 mg/kg, sc after 1 hr relative to control; type: functional; conditions: route subcutaneous
Rattus norvegicus [12] = test: Antiallodynic activity against von Frey hair mechanically stimulated neuropathic pain in Sprague-Dawley rat assessed as increase of response threshold at 30 mg/kg, sc after 2 hrs relative to control; type: functional; conditions: route subcutaneous
Rattus norvegicus [13] = test: Antiallodynic activity against von Frey hair mechanically stimulated neuropathic pain in Sprague-Dawley rat assessed as effect on allodynia in contralateral paw at 5.5 to 170 nmol/site administered intrathecally after 20 mins; type: functional, organism-based
Rattus norvegicus [14] = test: Antiallodynic activity against von Frey hair mechanically stimulated neuropathic pain in Sprague-Dawley rat assessed as effect on allodynia in contralateral paw at 5.5 to 170 nmol/site, icv after 20 mins; type: functional, organism-based
Rattus norvegicus [15] = test: Antiallodynic activity against von Frey hair mechanically stimulated neuropathic pain in Sprague-Dawley rat assessed as effect on allodynia in contralateral paw at 5.5 to 170 nmol/site, icv after 1 hr; type: functional, organism-based
[16] = biological target: Adenosine receptor A1 (Homo sapiens) (UniProt P30542); test: Inhibition of human adenosine A1 receptor at 1 uM relative to control
Rattus norvegicus [17] = test: Antiallodynic activity against von Frey hair mechanically stimulated neuropathic pain in Sprague-Dawley rat assessed as increase of response threshold per site at 55 nmol/site administered intrathecally after 20 mins relative to control; type: functional
Rattus norvegicus [18] = test: Antiallodynic activity against von Frey hair mechanically stimulated neuropathic pain in Sprague-Dawley rat assessed as increase of response threshold per site at 55 nmol/site, icv after 20 mins relative to control; type: functional
Rattus norvegicus [19] = test: Toxicity in von Frey hair mechanically stimulated neuropathic pain Sprague-Dawley rat model assessed as respiratory depression at up to 30 mg/kg, sc; type: organism-based; design: dose 30 mg/kg, route subcutaneous; conditions: in vivo
Rattus norvegicus [20] = test: Toxicity in von Frey hair mechanically stimulated neuropathic pain Sprague-Dawley rat model assessed as sedation effect at up to 170 nmol/site, administered intrathecally; type: organism-based; conditions: in vivo, icv_or_intrathecal
[21] = biological target: Adrenergic receptor alpha-1 (Rattus norvegicus) (UniProt P15823+P23944+P43140); test: Inhibition of rat alpha1 adrenoceptor at 1 uM relative to control
[22] = biological target: Sodium-dependent noradrenaline transporter (Homo sapiens) (UniProt P23975); test: Inhibition of human norepinephrine transporter at 1 uM relative to control
[23] = biological target: Type-1 angiotensin II receptor (Homo sapiens) (UniProt P30556); test: Inhibition of human angiotensin 2 AT1 receptor at 1 uM relative to control
Chain of Type-1 angiotensin II receptor (Homo sapiens) (P30556 whole entry): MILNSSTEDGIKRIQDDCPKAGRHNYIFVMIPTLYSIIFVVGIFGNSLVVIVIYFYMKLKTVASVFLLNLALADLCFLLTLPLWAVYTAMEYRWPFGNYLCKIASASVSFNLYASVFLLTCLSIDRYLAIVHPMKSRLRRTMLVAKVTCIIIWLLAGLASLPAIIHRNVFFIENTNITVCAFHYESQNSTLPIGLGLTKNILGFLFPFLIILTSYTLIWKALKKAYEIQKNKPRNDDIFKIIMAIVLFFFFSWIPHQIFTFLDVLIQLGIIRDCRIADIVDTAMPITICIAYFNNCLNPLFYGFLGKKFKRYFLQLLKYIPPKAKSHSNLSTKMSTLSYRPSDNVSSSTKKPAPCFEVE

[24] = biological target: Type-2 angiotensin II receptor (Homo sapiens) (UniProt P50052); test: Inhibition of human angiotensin 2 AT2 receptor at 1 uM relative to control
Chain of Type-2 angiotensin II receptor (Homo sapiens) (P50052 whole entry): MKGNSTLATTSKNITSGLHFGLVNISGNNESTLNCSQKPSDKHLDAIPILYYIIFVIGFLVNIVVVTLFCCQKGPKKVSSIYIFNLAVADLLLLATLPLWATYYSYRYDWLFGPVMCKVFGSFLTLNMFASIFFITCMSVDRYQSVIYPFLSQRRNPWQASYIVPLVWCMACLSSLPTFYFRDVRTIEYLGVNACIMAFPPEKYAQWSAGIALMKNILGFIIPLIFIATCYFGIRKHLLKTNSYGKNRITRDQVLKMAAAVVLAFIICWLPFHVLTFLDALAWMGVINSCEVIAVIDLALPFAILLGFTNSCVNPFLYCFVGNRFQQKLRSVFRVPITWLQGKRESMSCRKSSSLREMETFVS

[25] = biological target: D(3) dopamine receptor (Homo sapiens) (UniProt P35462); test: Inhibition of human dopamine D3 receptor at 1 uM relative to control
Chain of D(3) dopamine receptor (Homo sapiens) (P35462 whole entry): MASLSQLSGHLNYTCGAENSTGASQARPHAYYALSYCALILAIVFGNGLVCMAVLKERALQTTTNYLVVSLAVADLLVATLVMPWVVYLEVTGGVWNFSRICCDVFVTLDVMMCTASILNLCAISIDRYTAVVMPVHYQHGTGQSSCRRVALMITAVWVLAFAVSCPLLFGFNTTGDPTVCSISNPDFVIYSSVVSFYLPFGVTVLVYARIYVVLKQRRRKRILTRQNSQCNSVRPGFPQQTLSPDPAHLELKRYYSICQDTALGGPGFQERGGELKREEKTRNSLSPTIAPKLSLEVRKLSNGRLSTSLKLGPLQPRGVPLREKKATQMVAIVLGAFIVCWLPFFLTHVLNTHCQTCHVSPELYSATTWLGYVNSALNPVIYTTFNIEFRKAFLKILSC

Rattus norvegicus [26] = species on record: Rattus norvegicus; test: Inhibition of rat AMPA receptor at 1 uM relative to control
Rattus norvegicus [27] = species on record: Rattus norvegicus; test: Inhibition of rat glutamate receptor at 1 uM relative to control
Rattus norvegicus [28] = species on record: Rattus norvegicus; test: Inhibition of rat glycine receptor at 1 uM relative to control
[29] = biological target: Histamine H1 receptor (Cavia porcellus) (UniProt P31389); test: Inhibition of guinea pig histamine H1 receptor at 1 uM relative to control
Chain of Histamine H1 receptor (Cavia porcellus) (P31389 whole entry): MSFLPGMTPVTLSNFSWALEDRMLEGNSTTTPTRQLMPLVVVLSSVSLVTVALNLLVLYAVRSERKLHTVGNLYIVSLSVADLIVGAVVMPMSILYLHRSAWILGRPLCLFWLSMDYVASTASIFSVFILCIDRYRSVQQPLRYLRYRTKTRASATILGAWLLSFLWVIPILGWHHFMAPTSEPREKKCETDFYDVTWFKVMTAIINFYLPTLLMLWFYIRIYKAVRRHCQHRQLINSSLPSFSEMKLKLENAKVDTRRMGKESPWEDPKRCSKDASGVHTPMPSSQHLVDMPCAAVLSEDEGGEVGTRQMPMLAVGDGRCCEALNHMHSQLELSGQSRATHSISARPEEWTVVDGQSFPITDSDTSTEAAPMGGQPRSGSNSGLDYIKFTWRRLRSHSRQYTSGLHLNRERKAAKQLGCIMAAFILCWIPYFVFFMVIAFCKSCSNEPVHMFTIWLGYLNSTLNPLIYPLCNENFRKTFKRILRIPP

[30] = biological target: Histamine H3 receptor (Rattus norvegicus) (UniProt Q9QYN8); test: Inhibition of rat histamine H3 receptor at 1 uM relative to control
Chain of Histamine H3 receptor (Rattus norvegicus) (Q9QYN8 whole entry): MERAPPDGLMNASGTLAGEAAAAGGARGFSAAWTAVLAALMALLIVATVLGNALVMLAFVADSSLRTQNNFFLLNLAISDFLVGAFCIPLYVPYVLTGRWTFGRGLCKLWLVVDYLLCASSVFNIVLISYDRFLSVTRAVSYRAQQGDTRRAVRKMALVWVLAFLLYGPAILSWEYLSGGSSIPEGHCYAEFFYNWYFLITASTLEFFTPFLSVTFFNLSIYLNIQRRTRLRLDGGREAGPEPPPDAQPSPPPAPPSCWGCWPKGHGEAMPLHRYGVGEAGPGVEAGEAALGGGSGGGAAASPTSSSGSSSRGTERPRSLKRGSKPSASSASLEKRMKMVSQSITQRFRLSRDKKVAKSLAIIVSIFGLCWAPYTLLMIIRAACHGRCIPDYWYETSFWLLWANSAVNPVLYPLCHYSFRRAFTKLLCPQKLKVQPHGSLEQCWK

[31] = biological target: Cysteinyl leukotriene receptor 1 (Homo sapiens) (UniProt Q9Y271); test: Inhibition of human leukotriene D4 receptor at 1 uM relative to control
Chain of Cysteinyl leukotriene receptor 1 (Homo sapiens) (Q9Y271 whole entry): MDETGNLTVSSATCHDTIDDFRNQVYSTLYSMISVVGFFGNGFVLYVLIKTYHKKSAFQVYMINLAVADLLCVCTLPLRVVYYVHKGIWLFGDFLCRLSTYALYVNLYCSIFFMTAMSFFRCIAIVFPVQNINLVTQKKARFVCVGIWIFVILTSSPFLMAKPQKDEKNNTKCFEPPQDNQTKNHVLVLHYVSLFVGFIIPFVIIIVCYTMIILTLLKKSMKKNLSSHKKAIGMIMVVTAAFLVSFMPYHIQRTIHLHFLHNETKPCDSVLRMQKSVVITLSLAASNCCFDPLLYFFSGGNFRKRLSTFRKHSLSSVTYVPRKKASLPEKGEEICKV

[32] = biological target: Muscarinic acetylcholine receptor (Rattus norvegicus) (UniProt P08482+P08483+P08485+P08911+P10980); test: Inhibition of rat muscarinic M receptor at 1 uM relative to control
[33] = biological target: Muscarinic acetylcholine receptor M2 (Homo sapiens) (UniProt P08172); test: Inhibition of human muscarinic M2 receptor at 1 uM relative to control
[34] = biological target: Substance-K receptor (Homo sapiens) (UniProt P21452); test: Inhibition of human tachykinin NK2 receptor at 1 uM relative to control
[35] = biological target: 5-hydroxytryptamine receptor 2A (Homo sapiens) (UniProt P28223); test: Inhibition of human 5-HT2A receptor at 1 uM relative to control
Chain of 5-hydroxytryptamine receptor 2A (Homo sapiens) (P28223 whole entry): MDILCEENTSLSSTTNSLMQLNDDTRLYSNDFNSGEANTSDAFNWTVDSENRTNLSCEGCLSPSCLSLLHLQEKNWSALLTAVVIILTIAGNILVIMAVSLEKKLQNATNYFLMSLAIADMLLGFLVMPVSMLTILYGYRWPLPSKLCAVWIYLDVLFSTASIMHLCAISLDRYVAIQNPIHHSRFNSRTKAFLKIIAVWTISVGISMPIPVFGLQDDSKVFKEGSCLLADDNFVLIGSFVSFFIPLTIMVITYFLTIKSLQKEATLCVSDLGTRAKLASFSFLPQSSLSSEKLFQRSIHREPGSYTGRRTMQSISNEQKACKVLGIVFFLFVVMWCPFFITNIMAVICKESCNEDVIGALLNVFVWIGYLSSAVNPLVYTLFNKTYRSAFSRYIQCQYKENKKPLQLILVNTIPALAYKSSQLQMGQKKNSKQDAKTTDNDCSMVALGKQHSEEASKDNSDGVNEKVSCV

[36] = biological target: Sodium-dependent serotonin transporter (Homo sapiens) (UniProt P31645); test: Inhibition of human 5-HT transporter at 1 uM relative to control
Chain of Sodium-dependent serotonin transporter (Homo sapiens) (P31645 whole entry, looked up): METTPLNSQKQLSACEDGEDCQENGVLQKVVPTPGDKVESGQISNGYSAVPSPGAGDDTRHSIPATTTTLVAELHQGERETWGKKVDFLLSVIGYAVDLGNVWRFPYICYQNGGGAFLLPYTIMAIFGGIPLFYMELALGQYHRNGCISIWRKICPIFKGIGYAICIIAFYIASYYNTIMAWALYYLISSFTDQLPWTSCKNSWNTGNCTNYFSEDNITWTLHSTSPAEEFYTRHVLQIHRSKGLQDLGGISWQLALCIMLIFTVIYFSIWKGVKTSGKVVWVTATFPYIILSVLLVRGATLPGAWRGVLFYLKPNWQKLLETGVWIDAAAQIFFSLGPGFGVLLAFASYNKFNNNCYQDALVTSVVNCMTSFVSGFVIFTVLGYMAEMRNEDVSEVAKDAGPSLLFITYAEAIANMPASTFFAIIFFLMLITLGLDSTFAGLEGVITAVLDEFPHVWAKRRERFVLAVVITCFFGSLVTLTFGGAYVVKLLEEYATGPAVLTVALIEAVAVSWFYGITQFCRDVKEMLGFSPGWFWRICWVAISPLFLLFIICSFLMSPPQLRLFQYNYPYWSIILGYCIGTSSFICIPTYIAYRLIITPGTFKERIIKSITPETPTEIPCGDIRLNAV

Rattus norvegicus [37] = species on record: Rattus norvegicus; test: Inhibition of rat sigma receptor at 1 uM relative to control
[38] = biological target: Glucocorticoid receptor (Homo sapiens) (UniProt P04150); test: Inhibition of human glucocorticoid receptor at 1 uM relative to control
Chain of Glucocorticoid receptor (Homo sapiens) (P04150 whole entry): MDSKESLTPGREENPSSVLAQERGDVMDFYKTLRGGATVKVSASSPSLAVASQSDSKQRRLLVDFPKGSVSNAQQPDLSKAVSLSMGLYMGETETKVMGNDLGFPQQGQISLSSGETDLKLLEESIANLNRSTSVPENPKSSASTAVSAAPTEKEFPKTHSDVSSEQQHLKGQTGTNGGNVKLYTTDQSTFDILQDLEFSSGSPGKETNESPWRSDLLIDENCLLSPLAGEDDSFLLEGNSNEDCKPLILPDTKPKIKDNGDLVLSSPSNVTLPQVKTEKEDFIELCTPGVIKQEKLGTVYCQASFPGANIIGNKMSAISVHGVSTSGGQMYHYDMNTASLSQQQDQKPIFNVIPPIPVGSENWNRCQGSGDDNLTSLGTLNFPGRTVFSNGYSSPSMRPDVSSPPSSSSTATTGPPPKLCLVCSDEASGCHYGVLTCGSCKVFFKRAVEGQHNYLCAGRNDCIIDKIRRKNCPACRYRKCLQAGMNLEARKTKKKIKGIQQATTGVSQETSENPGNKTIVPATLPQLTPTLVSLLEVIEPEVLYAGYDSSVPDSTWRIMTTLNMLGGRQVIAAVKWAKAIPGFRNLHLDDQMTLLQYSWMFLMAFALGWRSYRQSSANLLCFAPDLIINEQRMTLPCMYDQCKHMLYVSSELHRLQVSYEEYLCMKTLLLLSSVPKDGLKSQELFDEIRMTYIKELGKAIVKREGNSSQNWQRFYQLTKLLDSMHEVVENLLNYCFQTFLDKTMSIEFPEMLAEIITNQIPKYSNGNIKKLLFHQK

[39] = biological target: L-type calcium channel, diltiazem site (Rattus norvegicus, UniProt P22002+P27732+Q02485); test: Inhibition of rat L-type calcium channel diltiazem site at 1 uM relative to control
Rattus norvegicus [40] = species on record: Rattus norvegicus; test: Inhibition of rat K+ATP channel at 1 uM relative to control
Rattus norvegicus [41] = species on record: Rattus norvegicus; test: Inhibition of rat K+V channel at 1 uM relative to control
monoamine oxidase A = monoamine oxidase A (Homo sapiens, UniProt P21397); test: Inhibition of human monoamine oxidase A at 1 uM relative to control
monoamine oxidase B = monoamine oxidase B (Homo sapiens, UniProt P27338); test: Inhibition of human monoamine oxidase B at 1 uM relative to control
[42] = biological target: Acetylcholinesterase (Homo sapiens) (UniProt P22303); test: Inhibition of human acetylcholine esterase at 1 uM relative to control
Chain of Acetylcholinesterase (Homo sapiens) (P22303 whole entry): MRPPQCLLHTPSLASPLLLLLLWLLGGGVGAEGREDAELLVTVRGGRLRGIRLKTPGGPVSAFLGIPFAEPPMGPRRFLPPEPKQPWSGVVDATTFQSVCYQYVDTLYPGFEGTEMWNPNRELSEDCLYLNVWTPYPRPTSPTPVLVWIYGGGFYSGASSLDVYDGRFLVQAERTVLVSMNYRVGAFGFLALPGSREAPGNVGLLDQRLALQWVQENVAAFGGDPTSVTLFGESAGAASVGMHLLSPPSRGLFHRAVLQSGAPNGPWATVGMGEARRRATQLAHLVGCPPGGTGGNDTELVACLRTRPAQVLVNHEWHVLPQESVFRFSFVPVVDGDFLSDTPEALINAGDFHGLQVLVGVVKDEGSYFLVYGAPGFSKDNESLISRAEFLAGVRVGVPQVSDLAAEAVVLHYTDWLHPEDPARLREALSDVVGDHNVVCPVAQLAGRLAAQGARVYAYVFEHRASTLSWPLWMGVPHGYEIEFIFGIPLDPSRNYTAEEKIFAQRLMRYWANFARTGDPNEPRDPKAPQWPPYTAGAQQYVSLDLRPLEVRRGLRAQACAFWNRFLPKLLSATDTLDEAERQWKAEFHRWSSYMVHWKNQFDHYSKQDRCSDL

Rattus norvegicus [43] = species on record: Rattus norvegicus; test: Stimulation of rat adenylate cyclase at 1 uM relative to basal activity

Work on `OCC1(N2CCC(n3c(N4CC5CNCC5C4)nc4ccccc43)CC2)CCCCCCC1` (stereo unspecified) yielded a concentration at 0.5 h [1] of 152 ng/mL, a concentration at 0.5 h [2] of 11 ng/mL and a concentration at 0.5 h [3] of 48 ng/mL. It also gave a concentration at […] [4] of 504 ng/mL, a concentration at 0.5 h [5] of 600 ng/mL and an ED50 (Rattus norvegicus [6]) of 10.8 mg/kg. The ED50 (Rattus norvegicus [7]) was over 30 mg/kg, the Activity (Rattus norvegicus [8]) was “Dose-dependent effect” and the ED50 (Rattus norvegicus [8]) was 80 nmol. For the same compound, the MED (Rattus norvegicus [9]) was 55 nmol, the Activity (Rattus norvegicus [10]) was “Dose-dependent effect” and the Activity (Rattus norvegicus [11]) was 79.3%. The Activity (Rattus norvegicus [12]) was 35.8%, the Activity (Rattus norvegicus [13]) was “inactive” and the Activity (Rattus norvegicus [14]) was “inactive”. For the same compound, the Activity (Rattus norvegicus [15]) was “inactive”, the inhibition [16] was under 10% and the Activity (Rattus norvegicus [17]) was 49.4%. The Activity (Rattus norvegicus [18]) was 23.7%, the Activity (Rattus norvegicus [19]) was “Non-toxic” and the Activity (Rattus norvegicus [20]) was “Non-toxic”. It also gave an inhibition [21] of 16%, an inhibition [22] of under 10% and an inhibition [23] of under 10%. It also gave an inhibition [24] of under 10%, an inhibition [25] of under 10% and an inhibition (Rattus norvegicus [26]) of under 10%. The inhibition (Rattus norvegicus [27]) was under 10%, the inhibition (Rattus norvegicus [28]) was under 10% and the inhibition [29] was under 10%. For the same compound, the inhibition [30] was under 10%, the inhibition [31] was under 10% and the inhibition [32] was 38%. It also gave an inhibition [33] of 19%, an inhibition [34] of under 10% and an inhibition [35] of under 10%. It also gave an inhibition [36] of under 10%, an inhibition (Rattus norvegicus [37]) of 10% and an inhibition [38] of under 10%. For the same compound, the inhibition at 1 µM [39] was 18%, the inhibition (Rattus norvegicus [40]) was under 10% and the inhibition (Rattus norvegicus [41]) was under 10%. It also gave an inhibition at 1 µM (monoamine oxidase A) of 12%, an inhibition at 1 µM (monoamine oxidase B) of under 10% and an inhibition [42] of under 10%. The inhibition (Rattus norvegicus [43]) was under 10%.
